This passage reports IC50 results from patent publication US11058688B2, “Imidazopiperazine inhibitors of transcription activating proteins” (Board of Regents, The University of Texas System, priority 2018, dated 2021).

A value given as a limit tells only on which side of the number the result lay.

The target of test [1] is GST-CBP(1081-1197) bromodomain (Homo sapiens (Human), UniProt Q92793). In words: CBP AlphaScreen Assay. As to conditions: binding to biotin-H4(1-21) Ac-K5/8/12/16 peptide. The protocol: (§1) Specific binding of the CBP or BRD4 bromodomain to the acetylated peptide derived from the H4 histone substrate (tetra acetylated H4(1-21) Ac-K5/8/12/16) was measured in absence or presence of inhibitors.
GST-CBP(1081-1197) bromodomain, sequence (Q92793 1081-1197): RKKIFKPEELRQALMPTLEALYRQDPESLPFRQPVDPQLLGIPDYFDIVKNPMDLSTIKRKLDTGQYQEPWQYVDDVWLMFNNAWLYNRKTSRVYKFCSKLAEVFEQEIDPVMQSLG
(§2) The standard dose response curves were fitted by Genedata Screener software using the variable-slope model: Signal=Signalnegative control+(SignalDMSO control−Signalnegative control)/(1+(IC50/Dose)^Hill slope).
(§3) Only Signal and Dose in the equation were treated as known values.

A further test concerns the target BRD4(49-170) bromodomain (Homo sapiens (Human), UniProt O60885). Briefly: BRD4 AlphaScreen Assay. Particulars: binding to biotin-H4(1-21) Ac-K5/8/12/16 peptide. The protocol: as §1, §2, §3
For orientation: Bead proximity is the source of the signal in Alpha formats.

Usually IC50 stands for the concentration that gives 50% inhibition. High values mean weaker potency in that assay, low ones greater potency in that assay. For the compound `CC(=O)N1CCn2c(C3CC3)nc(-c3cc4c(-c5cnn(C)c5)nn(C)c4cc3F)c2C1` [Example 28, 1-(3-Cyclopropyl-1-(6-fluoro-1-methyl-3-(1-methyl-1H-pyrazol-4-yl)-1H-indazol-5-yl)-5,6-dihydroimidazo[1,5-a]pyrazin-7(8H)-yl)ethan-1-one], the IC50 came to 0.033 µM in test [1] and 18.6 µM on BRD4(49-170) bromodomain.
Taken in the same sequence, the figures for `CC(=O)N1CCn2c(C3CC3)nc(-c3ccnc4c3cc(-c3cnn(C)c3)n4C)c2C1` [Example 29, 1-(3-Cyclopropyl-1-(1-methyl-2-(1-methyl-1H-pyrazol-4-yl)-1H-pyrrolo[2,3-b]pyridin-4-yl)-5,6-dihydroimidazo[1,5-a]pyrazin-7(8H)-yl)ethan-1-one] were 0.324 µM and over 25 µM.
Taken in the same sequence, the figures for `CC(=O)N1CCn2c(C3CC3)nc(-c3ccc4c(c3)c(-c3c(C)noc3C)nn4C)c2C1` [Example 30, 1-(3-Cyclopropyl-1-(3-(3,5-dimethylisoxazol-4-yl)-1-methyl-1H-indazol-5-yl)-5,6-dihydroimidazo[1,5-a]pyrazin-7(8H)-yl)ethan-1-one] were 1.19 µM and over 25 µM.
Taken in the same sequence, the figures for `CNC(=O)c1nc(-c2ccc3c(c2)c(-c2cnn(C)c2)nn3C)c2n1CCN(C(C)=O)C2` [Example 31, 7-Acetyl-N-methyl-1-(1-methyl-3-(1-methyl-1H-pyrazol-4-yl)-1H-indazol-5-yl)-5,6,7,8-tetrahydroimidazo[1,5-a]pyrazine-3-carboxamide] were 0.611 µM and 7.47 µM.
For the compound `CC(=O)N1CCn2c(Cl)nc(-c3ccc4c(c3)c(-c3cnn(C)c3)nn4C)c2C1` [Example 32, 1-(3-Chloro-1-(1-methyl-3-(1-methyl-1H-pyrazol-4-yl)-1H-indazol-5-yl)-5,6-dihydroimidazo[1,5-a]pyrazin-7(8H)-yl)ethan-1-one], the IC50 in test [1] was 0.439 µM; at BRD4(49-170) bromodomain, over 10 µM.
`CNC(=O)N1CCn2c(C3CC3)nc(N3CCCc4nc(-c5cnn(C)c5)c(C(F)(F)F)cc43)c2C1` [Example 33, 3-Cyclopropyl-N-methyl-1-(6-(1-methyl-1H-pyrazol-4-yl)-7-(trifluoromethyl)-3,4-dihydro-1,5-naphthyridin-1(2H)-yl)-5,6-dihydroimidazo[1,5-a]pyrazine-7(8H)-carboxamide]: the IC50 in test [1] is 0.04 µM; at BRD4(49-170) bromodomain it was over 10 µM.
Taken in the same sequence, the figures for `CNC(=O)N1CCn2c(C3CC3)nc(-c3cccc4nc(-c5cnn(C)c5)c(C(F)F)cc34)c2C1` [Example 34, 3-Cyclopropyl-1-(3-(difluoromethyl)-2-(1-methyl-1H-pyrazol-4-yl)quinolin-5-yl)-N-methyl-5,6-dihydroimidazo[1,5-a]pyrazine-7(8H)-carboxamide] were 0.037 µM and 17.3 µM.
In the case of `CC(=O)N1CCn2c(C3CC3)nc(N3CCCc4cc(-c5ccc(C(N)=O)cc5)ccc43)c2C1` [Example 35, 4-(1-(7-Acetyl-3-cyclopropyl-5,6,7,8-tetrahydroimidazo[1,5-a]pyrazin-1-yl)-1,2,3,4-tetrahydroquinolin-6-yl)benzamide], the IC50 in test [1] was 0.079 µM; on BRD4(49-170) bromodomain, over 25 µM.
Taken in the same sequence, the figures for `CNC(=O)N1CCn2c(C3CC3)nc(-c3ccnc4nc(-c5cnn(C)c5)c(C(F)F)cc34)c2C1` [Example 36, 3-Cyclopropyl-1-(6-(difluoromethyl)-7-(1-methyl-1H-pyrazol-4-yl)-1,8-naphthyridin-4-yl)-N-methyl-5,6-dihydroimidazo[1,5-a]pyrazine-7(8H)-carboxamide] were 0.038 µM and 9.71 µM.
Consider `CNC(=O)N1CCn2c(C3CC3)nc(-c3cccc4nc(-c5cnn(C)c5)ncc34)c2C1` [Example 37, 3-Cyclopropyl-N-methyl-1-(2-(1-methyl-1H-pyrazol-4-yl)quinazolin-5-yl)-5,6-dihydroimidazo[1,5-a]pyrazine-7(8H)-carboxamide], for which the IC50 in test [1] came to 0.016 µM; on BRD4(49-170) bromodomain, 14.3 µM.
`CNC(=O)N1CCn2c(C3CC3)nc(-c3c[nH]c4cc(-c5cnn(C)c5)ncc34)c2C1` [Example 38, 3-Cyclopropyl-N-methyl-1-(6-(1-methyl-1H-pyrazol-4-yl)-1H-pyrrolo[3,2-c]pyridin-3-yl)-5,6-dihydroimidazo[1,5-a]pyrazine-7(8H)-carboxamide]: the IC50 came to 0.032 µM in test [1] and 19.8 µM at BRD4(49-170) bromodomain.
Consider `CNC(=O)N1CCn2c(C3CC3)nc(-c3csc4cc(-c5cnn(C)c5)ncc34)c2C1` [Example 39, 3-Cyclopropyl-N-methyl-1-(6-(1-methyl-1H-pyrazol-4-yl)thieno[3,2-c]pyridin-3-yl)-5,6-dihydroimidazo[1,5-a]pyrazine-7(8H)-carboxamide], for which the IC50 in test [1] was found to be 0.033 µM; at BRD4(49-170) bromodomain, 14.8 µM.
Taken in the same sequence, the figures for `CNC(=O)N1CCn2c(C3CC3)nc(-c3cncc4cc(-c5cnn(C)c5)c(C(F)F)cc34)c2C1` [Example 40, 3-Cyclopropyl-1-(6-(difluoromethyl)-7-(1-methyl-1H-pyrazol-4-yl)isoquinolin-4-yl)-N-methyl-5,6-dihydroimidazo[1,5-a]pyrazine-7(8H)-carboxamide] were 0.002 µM and 4.78 µM.
Taken in the same sequence, the figures for `CC(=O)N1CCn2c(C3CC3)nc(-c3cnc(N)c(OC(F)(F)F)c3)c2C1` [Example 41, 1-(1-(6-amino-5-(trifluoromethoxy)pyridin-3-yl)-3-cyclopropyl-5,6-dihydroimidazo[1,5-a]pyrazin-7(8H)-yl)ethan-1-one] were 4.49 µM and over 25 µM.
In the case of `COc1ccc(-c2nc(C3CC3)n3c2CN(C(C)=O)CC3)cc1OC` [Example 42, 1-(3-cyclopropyl-1-(3,4-dimethoxyphenyl)-5,6-dihydroimidazo[1,5-a]pyrazin-7(8H)-yl)ethan-1-one], the IC50 is 4.26 µM in test [1] and over 25 µM on BRD4(49-170) bromodomain.
Taken in the same sequence, the figures for `CC(=O)N1CCn2c(C3CC3)nc(-c3ccc4c(cnn4C)c3)c2C1` [Example 43, 1-(3-cyclopropyl-1-(1-methyl-1H-indazol-5-yl)-5,6-dihydroimidazol[1,5-a]pyrazin-7(8H)-yl)ethan-1-one] were 3.19 µM and over 25 µM.
Take `CC(=O)N1CCn2c(C3CC3)nc(-c3ccc4c(c3)c(-c3cnn(C)c3)nn4C)c2C1` [Example 44, 1-(3-cyclopropyl-1-(1-methyl-3-(1-methyl-1H-pyrazol-4-yl)-1H-indazol-5-yl)-5,6-dihydroimidazo[1,5-a]pyrazin-7(8H)-yl)ethan-1-one]: the IC50 in test [1] worked out at 0.047 µM; on BRD4(49-170) bromodomain, 12.1 µM.
Taken in the same sequence, the figures for `CC(=O)N1CCn2c(C3CCOC3)nc(-c3ccc4c(c3)c(-c3cnn(C)c3)nn4C)c2C1` (centres unmarked) [Example 45, 1-(1-(1-methyl-3-(1-methyl-1H-pyrazol-4-yl)-1H-indazol-5-yl)-3-(tetrahydrofuran-3-yl)-5,6-dihydroimidazo[1,5-a]pyrazin-7(8H)-yl)ethan-1-one] were 0.124 µM and 6.29 µM.
On to `CC(=O)N1CCn2c(C3CCC3)nc(-c3ccc4c(c3)c(-c3cnn(C)c3)nn4C)c2C1` [Example 46, 1-(3-cyclobutyl-1-(1-methyl-3-(1-methyl-1H-pyrazol-4-yl)-1H-indazol-5-yl)-5,6-dihydroimidazo[1,5-a]pyrazin-7(8H)-yl)ethan-1-one], for which the IC50 was 0.052 µM in test [1] and over 10 µM on BRD4(49-170) bromodomain.
